Source: patent US11884670B1, “Pyrido[4′,3′:4,5]pyrrolo[3,2-c][2,7]naphthyridin-10-one compounds as CK2 inhibitors” (KING FAISAL UNIVERSITY, priority 2023, dated 2024)

Tests used:
[1] = tested on: PC3 (prostate); assay: In vitro cytotoxic activity (MTT) assay, PC3; assay type: cell-based; conditions: Homo sapiens, Prostate cell; PC3 (prostate) cells, exposed for 96 hours; read-out: IC50, concentration eliciting 50% inhibition of cell proliferation
Protocol: (§1) Compounds 1-16 were screened for their in vitro cytotoxic activity utilizing a 3-(4,5-dimethyl-thiazol-2-yl)-2,5-diphenyltetrazolium bromide (MTT) assay against selected cancer human cell lines consisting of PC3 (prostate), HCT116 (colon), A375 (melanoma), H1299 (lung), MIAPaCa-2 (pancreas), HL60 (leukemia), MCF7 (breast), MDA-MB-231 (breast) (T. Mosmann, J. Immunol. Meth., 1983, 65, 55-63). The cells were cultured at 37° C. in RMPI1640 medium supplemented with 10% fetal bovine serum, 50 IU/mL penicillin, and 50 μg/mL streptomycin in a 5% CO2 incubator. All cells were sub-cultured 3 times/week by trypsinisation. Viable cells were seeded and allowed to adhere for 12 h before a test drug was added in 96-well plates at an initial density of 1.0×10^5 cells/mL. Tumour cell lines were separately exposed to various concentrations of the tested compounds followed by incubation at a temperature of 37° C. during 96 h inside a medium of fresh RMPI 1640. Cells were subsequently incubated at 37° C. using MTT at 0.5 mg/mL during 4 h. After removal of supernatant, formazan crystals were dissolved in isopropanol and the optical density was measured at 570 nm. CX-4945 was used as a positive control.

[2] = tested on: HCT116 (colon); assay: In vitro cytotoxic activity (MTT) assay, HCT116; assay type: cell-based; conditions: Homo sapiens, HCT-116; HCT116 (colon) cells, exposed for 96 hours; read-out: IC50, concentration eliciting 50% inhibition of cell proliferation
Protocol: as §1

[3] = tested on: A375 (melanoma); assay: In vitro cytotoxic activity (MTT) assay, A375; assay type: cell-based; conditions: Homo sapiens, A-375; A375 (melanoma) cells, exposed for 96 hours; read-out: IC50, concentration eliciting 50% inhibition of cell proliferation
Protocol: as §1

[4] = biological target: T1, recombinant human CK2 (RRββ-holoenzyme) (Homo sapiens, UniProt P68400); assay: CK2 kinase assay (33P-ATP, substrate peptide RRRDDDSDDD); assay type: biochemical; conditions: final ATP concentration 15 μM, 10 min at 30° C.; read-out: protein kinase CK2 IC50
T1 construct: purchased Millipore
Protocol: CK2 Kinase Assay was conducted using the protocol as described in Pierre F. et al; J. Med. Chem. 2011, 54, 635-654. The tested compounds in aqueous solution were added at a volume of 10 μL to a reaction mixture comprising 10 μL of assay dilution buffer (ADB; 20 mM MOPS, pH 7.2, 25 mM β-glycerol phosphate, 5 mM EGTA, 1 mM sodium orthovanadate, and 1 mM dithiothreitol), 10 μL of substrate peptide (RRRDDDSDDD, dissolved in ADB at a concentration of 1 mM), 10 μL of recombinant human CK2 (RRββ-holoenzyme, 25 ng dissolved in ADB; Millipore). Reactions were initiated by the addition of 10 μL of ATP solution (90% 75 mMMgCl2, 75 μM ATP (final ATP concentration: 15 μM) dissolved in ADB; 10% [γ-33P] ATP (stock 1 mCi/100 μL; 3000 Ci/mmol (Perkin-Elmer) and maintained for 10 min at 30° C. The reactions were quenched with 100 μL of 0.75% phosphoric acid and then transferred to and filtered through a phosphor cellulose filter plate (Millipore). After washing each well five times with 0.75% phosphoric acid, the plate was dried under vacuum for 5 min and, following the addition of 15 μL of scintillation fluid to each well, the residual radioactivity was measured using a Wallac […] counter. The IC50 values were derived from eight concentrations of test inhibitors.

[5] = tested on: HL60 (leukemia); assay: In vitro cytotoxic activity (MTT) assay, HL60; assay type: cell-based; conditions: Homo sapiens, HL-60; HL60 (leukemia) cells, exposed for 96 hours; read-out: IC50, concentration eliciting 50% inhibition of cell proliferation
Protocol: as §1

[6] = tested on: MCF7 (breast); assay: In vitro cytotoxic activity (MTT) assay, MCF7; assay type: cell-based; conditions: Homo sapiens; MCF7 (breast) cells, exposed for 96 hours; read-out: IC50, concentration eliciting 50% inhibition of cell proliferation
Protocol: as §1

[7] = tested on: H1299 (lung); assay: In vitro cytotoxic activity (MTT) assay, H1299; assay type: cell-based; conditions: Homo sapiens, NCI-H1299; H1299 (lung) cells, exposed for 96 hours; read-out: IC50, concentration eliciting 50% inhibition of cell proliferation
Protocol: as §1

[8] = tested on: MIAPaCa-2 (pancreas); assay: In vitro cytotoxic activity (MTT) assay, MIAPaCa-2; assay type: cell-based; conditions: Homo sapiens, MIA PaCa-2; MIAPaCa-2 (pancreas) cells, exposed for 96 hours; read-out: IC50, concentration eliciting 50% inhibition of cell proliferation
Protocol: as §1

[9] = tested on: MDA-MB-231 (breast); assay: In vitro cytotoxic activity (MTT) assay, MDA-MB-231; assay type: cell-based; conditions: Homo sapiens; MDA-MB-231 (breast) cells, exposed for 96 hours; read-out: IC50, concentration eliciting 50% inhibition of cell proliferation
Protocol: as §1

T1 sequence (P68400 whole entry): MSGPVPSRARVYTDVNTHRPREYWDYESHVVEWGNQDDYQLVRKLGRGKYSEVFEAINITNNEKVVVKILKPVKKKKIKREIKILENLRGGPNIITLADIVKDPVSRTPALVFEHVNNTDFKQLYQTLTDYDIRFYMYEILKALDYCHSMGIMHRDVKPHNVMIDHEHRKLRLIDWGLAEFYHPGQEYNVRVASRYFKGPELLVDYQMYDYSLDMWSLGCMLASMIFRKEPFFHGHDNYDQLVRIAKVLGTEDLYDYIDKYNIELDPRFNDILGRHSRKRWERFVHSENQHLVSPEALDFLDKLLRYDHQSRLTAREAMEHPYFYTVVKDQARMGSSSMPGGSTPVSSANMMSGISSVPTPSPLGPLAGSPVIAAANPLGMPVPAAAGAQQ
T1 sequence (P67870 whole entry partner): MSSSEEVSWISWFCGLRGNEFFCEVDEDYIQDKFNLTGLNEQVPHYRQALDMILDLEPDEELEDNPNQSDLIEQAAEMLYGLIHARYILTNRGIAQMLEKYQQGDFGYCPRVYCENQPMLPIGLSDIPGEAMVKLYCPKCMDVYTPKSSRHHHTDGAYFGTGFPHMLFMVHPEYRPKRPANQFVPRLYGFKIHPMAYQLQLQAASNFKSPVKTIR

`O=c1[nH]ccc2c1[nH]c1c3ccncc3c(Nc3cccc(Cl)c3)nc21` [Compound 1, 5-((3-chlorophenyl)amino)-9,11-dihydro-10H-pyrido[4′,3′:4,5]pyrrolo[3,2-c][2,7]naphthyridin-10-one] was tested. Which IC50 [1] did it give?
Its IC50 is 2100 nM.

What about the IC50 [2] of the same compound?
Its IC50 is 1900 nM.

What about the IC50 [3] of the same compound?
Its IC50 is 3300 nM.

And the IC50 [4]?
Its IC50 is 38 nM.

What about the IC50 [5] of the same compound?
Its IC50 is 3400 nM.

What about the IC50 [6] of the same compound?
Its IC50 is 6200 nM.

And the IC50 [7]?
The IC50 was 1000 nM.

What about the IC50 [8] of the same compound?
Its IC50 is 1700 nM.

And the IC50 [9]?
The IC50 was 4800 nM.
